# Data reported in patent US20250282795A1, “EGFR Inhibitors in cancer treatment” (Celyn Therapeutics, Inc., priority 2022, published 2025).
# Experiments:
# Assay type in all cases: cell-based
# Ba/F3 (EGFRwt) = experiment: Cellular growth inhibition assay (CellTiter-Glo), Ba/F3 (EGFRwt); details: Mus musculus, BaF3, 72 h; Ba/F3 (Wild type) with 10 ng/ml rhEGF, 3 days of incubation
# Description: (§1) Example E. Cellular Growth Inhibition Assay
# (§2) Ba/F3(Empty vector) (Signosis), Ba/F3(Wild type) (Signosis), Ba/F3(L^858R+T790M) (Signosis), Ba/F3(A767_dupASV) (Signosis), Ba/F3(D770_N771insSVD) (Signosis), Ba/F3(H773_V774insNPH) (Signosis) were seeded at a density of 4000 cells per well in a CellBIND® 384-well Flat Clear Bottom Black Polystyrene Microplates (Coming, USA, Cat #3770) in 45 μl total volume of RPMI (PanEco, Cat #C330, Russia) with […] (HyClone, Cat #SV30160.03) and with 10 ng/ml rmIL-3 (RD systems, USA, Cat #403-ML-025) (for BaBF3(Empty vector)) and with 10 ng/ml rhEGF (ThermoFisher, USA, Cat #PHG0311L) (for BaCF3(Wild type)). 500× compounds solutions in DMSO (Sigma Cat #D2650) were prepared into Cmpnds plate (DiamondWell Plate, Axigen, Cat #P-384-120SQ-C—S) and DMSO only control was included. 1.l of 500× compounds (Cmpnds plate) was added to 49 µl of culture medium into Dilution plate (Diamond Well Plate, Axigen, Cat #P-384-120SQ-C—S), mixed and then 5 μl of 10× compounds solutions were transferred to cells followed by centrifugation at 100 g for 1 min. Final DMSO concentration was 0.2% o. After 3 days of incubation 10.l of CellTiter-Glo (Promega, CAT #G7572) were added to the cells, plate was centrifuged at 100 g for 1 min and luminescence signal was measured using Microplate Reader (CLARIOStar).
# [1] = Cellular growth inhibition assay (CellTiter-Glo), Ba/F3 (Empty vector); details: mouse, Ba/F3 cells with empty vector; Ba/F3 (Empty vector) with 10 ng/ml rmIL-3, 3 days of incubation
# Description: as §1, §2
# Ba/F3 (A767_dupASV) = experiment: Cellular growth inhibition assay (CellTiter-Glo), Ba/F3 (A767_dupASV); details: Mus musculus, BaF3, 72 h; 3 days of incubation; read-out: Ba/F3 (A767_dup ASV) CC50
# Description: as §1, §2
# Ba/F3 (L858R + T790M) = experiment: Cellular growth inhibition assay (CellTiter-Glo), Ba/F3 (L858R+T790M); details: Mus musculus, BaF3, 72 h; 3 days of incubation
# Description: as §1, §2
# Ba/F3 (H773_V774insSVD) = experiment: Cellular growth inhibition assay (CellTiter-Glo), Ba/F3 (H773_V774insSVD); details: Mus musculus, BaF3, 72 h; 3 days of incubation; read-out: Ba/F3 (H773_V774 insSVD) CC50
# Ba/F3 (D770_N771insSVD) = experiment: Cellular growth inhibition assay (CellTiter-Glo), Ba/F3 (D770_N771insSVD); details: Mus musculus, BaF3, 72 h; 3 days of incubation; read-out: Ba/F3 (D770_N771 insSVD) CC50
# Description: as §1, §2
SMILES,CC50 (Ba/F3 (EGFRwt)),CC50 at 3 days [1],CC50 (Ba/F3 (A767_dupASV)),CC50 (Ba/F3 (L858R + T790M)),CC50 (Ba/F3 (H773_V774insSVD)),CC50 (Ba/F3 (D770_N771insSVD))
"COc1c(F)cccc1Nc1c2[nH]c3c1C(=O)NCC3C/C=C/COc1cccc(c1)COc1cnccc1-2 (stereo not drawn) [Compound 29, (19E)-28-[(3-Fluoro-2-methoxyphenyl)amino]-3,22-dioxa-6,11,15-triazapentacyclo[21.3.1^10,13.0^4,9.0^12,17]octacosa-1(27),4,6,8,10(28),12,19,23,25-nonaen-14-one]",100 to 1000 nM,> 10 µM,100 to 1000 nM,1 to 10 µM,1000 to 10000 nM,100 to 1000 nM
"COc1c(F)cccc1Nc1c2[nH]c3c1C(=O)NCC3C/C=C\CCCC(=O)N1CCCC(COc3cnccc3-2)C1 (stereo not drawn) [Compound 117, 25-[(3-Fluoro-2-methoxyphenyl)amino]-7,8,9,10,14,15,18,18a,19,20-decahydro-6H-7,11-methano-22,24-methenodipyrido[3,4-b:4′,3′-f][1,5,15]oxadiazacycloicosine-12,21(13H,23H)-dione]",100 to 1000 nM,> 10 µM,10 to 100 nM,1 to 10 µM,1000 to 10000 nM,100 to 1000 nM
"COc1c(F)cccc1Nc1c2[nH]c3c1C(=O)NCC3C/C=C/CCCC(=O)N1CCCC(COc3cnccc3-2)C1 (stereo not drawn) [Compound 118, 25-[(3-Fluoro-2-methoxyphenyl)amino]-7,8,9,10,14,15,18,18a,19,20-decahydro-6H-7,11-methano-22,24-methenodipyrido[3,4-b:4′,3′-f][1,5,15]oxadiazacycloicosine-12,21(13H,23H)-dione]",1000 to 10000 nM,1 to 10 µM,100 to 1000 nM,1 to 10 µM,1000 to 10000 nM,1000 to 10000 nM
"COc1c(F)cccc1Nc1c2[nH]c3c1C(=O)NCC3CCCCCCC(=O)N1CCCC(COc3cnccc3-2)C1 (stereo not drawn) [Compound 119, 25-[(3-Fluoro-2-methoxyphenyl)amino]-7,8,9,10,14,15,16,17,18,18a,19,20-dodecahydro-6H-7,11-methano-22,24-methenodipyrido[3,4-b:4′,3′-f][1,5,15]oxadiazacycloicosine-12,21(13H,23H)-dione]",1000 to 10000 nM,> 10 µM,100 to 1000 nM,> 10 µM,> 10000 nM,1000 to 10000 nM
"COc1c(F)cccc1Nc1c2[nH]c3c1C(=O)NCC3CCCOCCCCCCN1CCC(CC1)Oc1cnccc1-2 (stereo not drawn) [Compound 137, 28-(3-fluoro-2-methoxyanilino)-1,2,13,14,16,17,18,19,20,21,23,24,25,25a-tetradecahydro-12H-12,15-ethano-4,6-(metheno)dipyrido[3,4-b: 4′,3′-f][1,11,5,18]dioxadiazacyclohenicosin-3(5H)-one]",,> 10 µM,100 to 1000 nM,1 to 10 µM,1000 to 10000 nM,1000 to 10000 nM
"COc1c(F)cccc1Nc1c2[nH]c3c1C(=O)NCC3CC(=O)N1CC(CCOc3cnccc3-2)C1 (stereo not drawn) [Compound 139, 19-(3-fluoro-2-methoxyanilino)-6,7,8,9,12,12a,13,14-octahydro-11H-8,10-methano-16,18-(metheno)dipyrido[3,4-b: 4′,3′-f][1,5,10]oxadiazacyclotetradecine-11,15(17H)-dione]",,> 10 µM,100 to 1000 nM,> 10 µM,1000 to 10000 nM,1000 to 10000 nM
"COc1c(F)cccc1Nc1c2[nH]c3c1C(=O)NCC3CC(=O)N[C@@H](C)C(=O)NCCCOc1cnccc1-2 (stereo partly drawn) [Compound 140, (11S)-21-(3-fluoro-2-methoxyanilino)-11-methyl-6,7,8,9,11,12,14,14a,15,16-decahydro-18,20-(metheno)dipyrido[3,4-k: 4′,3′-o][1,5,8,13]oxatriazacyclohexadecine-10,13,17(19H)-trione]",,> 10 µM,1000 to 10000 nM,> 10 µM,> 10000 nM,> 10000 nM
"COc1c(F)cccc1Nc1c2[nH]c3c1C(=O)NCC3CC(=O)N[C@H](C)C(=O)NCCCOc1cnccc1-2 (stereo partly drawn) [Compound 141, (11R)-21-(3-fluoro-2-methoxyanilino)-11-methyl-6,7,8,9,11,12,14,14a,15,16-decahydro-18,20-(metheno)dipyrido[3,4-k: 4′,3′-o][1,5,8,13]oxatriazacyclohexadecine-10,13,17(19H)-trione]",,> 10 µM,100 to 1000 nM,> 10 µM,> 10000 nM,1000 to 10000 nM
"COc1c(F)cccc1Nc1c2[nH]c3c1C(=O)NCC3CCCOCCNCCCOc1cnccc1-2 (stereo not drawn) [Compound 143, 22-(3-fluoro-2-methoxyanilino)-6,7,8,9,10,11,13,14,15,15a,16,17-dodecahydro-19,21-(metheno)dipyrido[3,4-i: 4′,3′-m][1,8,4,12]dioxadiazacycloheptadecin-18(20H)-one]",,> 10 µM,> 10000 nM,> 10 µM,> 10000 nM,> 10000 nM
"COc1c(F)cccc1Nc1c2[nH]c3c1C(=O)NC[C@H]3CCCN1CCO[C@H](COc3cnccc3-2)C1 [Compound 158, (7S)-21-[(3-Fluoro-2-methoxyphenyl)amino]-6,7,9,10,12,13,14,14a,15,16-decahydro-7,11-methano-18,20-methenodipyrido[3,4-k:4′,3′-o][1,4,7,13]dioxadiazacyclohexadecin-17(19H)-one]",,1 to 10 µM,100 to 1000 nM,> 10 µM,1000 to 10000 nM,1000 to 10000 nM
"COc1c(F)cccc1Nc1c2[nH]c3c1C(=O)NCC3CCCCN(C(C)C)CCOc1cnccc1-2 (stereo not drawn) [Compound 159, 19-(3-fluoro-2-methoxyanilino)-8-(propan-2-yl)-6,7,8,9,10,11,12,12a,13,14-decahydro-16,18-(metheno)dipyrido[3,4-i: 4′,3′-m][1,4,11]oxadiazacyclotetradecin-15(17H)-one]",,> 10 µM,100 to 1000 nM,> 10 µM,1000 to 10000 nM,1000 to 10000 nM
"COc1c(F)cccc1Nc1c2[nH]c3c1C(=O)NCC3CCCN1CC(COc3cnccc3-2)C1 (stereo not drawn) [Compound 160, 19-[(3-Fluoro-2-methoxyphenyl)amino]-7,8,10,11,12,12a,13,14-octahydro-6H-7,9-methano-16,18-methenodipyrido[3,4-b:4′,3′-f][1,5,11]oxadiazacyclotetradecin-15(17H)-one]",,> 10 µM,100 to 1000 nM,> 10 µM,1000 to 10000 nM,1000 to 10000 nM
"COc1c(F)cccc1Nc1c2[nH]c3c1C(=O)NCC3CCCN1CCC(COc3cnccc3-2)C1 (stereo not drawn) [Compound 161, 20-(3-fluoro-2-methoxyanilino)-6,7,8,9,11,12,13,13a,14,15-decahydro-7,10-methano-17,19-(metheno)dipyrido[3,4-b: 4′,3′-f][1,5,11]oxadiazacyclopentadecin-16(18H)-one]",,> 10 µM,10 to 100 nM,1 to 10 µM,1000 to 10000 nM,100 to 1000 nM
"COc1c(F)cccc1Nc1c2[nH]c3c1C(=O)NCC3CCCCCCNCCOc1cnccc1-2 (stereo not drawn) [Compound 164, 21-(3-fluoro-2-methoxyanilino)-6,7,8,9,10,11,12,13,14,14a,15,16-dodecahydro-18,20-(metheno)dipyrido[3,4-k: 4′,3′-o][1,4,13]oxadiazacyclohexadecin-17(19H)-one]",,> 10 µM,10 to 100 nM,1 to 10 µM,100 to 1000 nM,10 to 100 nM
"COc1c(F)cccc1Nc1c2[nH]c3c1C(=O)NCC3CCCN1CCCC(C1)Oc1cnccc1-2 (stereo not drawn) [Compound 166, 20-(3-fluoro-2-methoxyanilino)-6,7,8,9,11,12,13,13a,14,15-decahydro-6,10-methano-17,19-(metheno)dipyrido[3,4-b: 4′,3′-f][1,5,11]oxadiazacyclopentadecin-16(18H)-one]",,> 10 µM,1 to 10 nM,1 to 10 µM,100 to 1000 nM,10 to 100 nM
"COc1c(F)cccc1Nc1c2[nH]c3c1C(=O)NC[C@@H]3CCCN1CCC[C@@H]1COc1cnccc1-2 [Compound 167, (12aR)-20-[(3-fluoro-2-methoxyphenyl)amino]-1,2,12a,13,14,15,17,18,19,19a-decahydro-12H-4,6-methenodipyrido[3,4-h:4′,3′-l]pyrrolo[2,1-c][1,4,10]oxadiazacyclotridecin-3(5H)-one]",,> 10 µM,10 to 100 nM,1 to 10 µM,100 to 1000 nM,100 to 1000 nM
